This is an account of results in PubChem BioAssay AID1918955 (Molecular Pharmacology Branch, DTP, NCI, 2023).

Where “and” joins values, the source holds several entries; their conditions need not be identical. Identical values can stand only once.

This experiment has as its system NCI/ADR-RES complex spheroid viability. Description: Anticancer human tumor NCI/ADR-RES cell line growth inhibition.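 As to all read-outs here: spheroids exposed to compounds for 7 days.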 The following applies: for viability, T/C: stronger effect = lower value. An excerpt:
Multicellular complex tumor spheroid response to LSD1 Inhibitor Iadademstat in combination with a variety of drugs and investigational agents in selected tumor cell lines
The current study was undertaken to assess response to LSD1 inhibitors in combination with standard-of-care drugs and investigational agents in solid tumor complex spheroid models as well as in the K-562 leukemia. Complex spheroids include a stromal component modeled by human endothelial cells (HUVEC) and fibroblasts modeled by human mesenchymal stem cells (MSCs). The concentration ranges selected for each drug and investigational agent were based upon clinically achievable concentrations if the clinical Cmax of the agent was known.
Compounds. The drugs and investigational agents used in this study are listed on Table 1. All of the agents used, including staurosporine (NSC755774) and gemcitabine (NSC613327), were obtained from the Developmental Therapeutics Program, NCI. FDA-approved anticancer drugs are available from the NCI at http://dtp.nci.nih.gov/branches/dscb/oncology_drugset_explanation.html. Drugs and investigational agents were >95% pure by proton nuclear magnetic resonance (NMR) and liquid chromatography/mass spectrometry (LC/MS). Stock solutions were prepared at 400x in DMSO, stored at -70 degrees C, and diluted in fresh medium prior to their use. The final concentration of DMSO in cell culture wells never exceeded 0.25% (v/v). The FDA-approved anticancer drug set is available from the Developmental Therapeutics Program at https://dtp.cancer.gov/organization/dscb/obtaining/available_plates.htm. All drugs and investigational agents were tested over a range starting from a high concentration at or near the clinical Cmax and decreasing in half-log increments. If the clinical Cmax for an agent had not been determined, the highest concentration tested was 10 microM.
Cell Lines. The patient-derived cancer cell (PDC) lines: 292921-168-R-J2-PDC, K24384-001-R-PDC, and 521955-158-R2-J5-PDC pancreatic carcinomas, 556581-035-R-J1 ovarian carcinoma, 324938-238-R-J1-PDC, 855422-203-R-J1-PDC and 883617-216-R-J1-PDC urothelial bladder carcinomas, 743489-274-T-PDC renal cell carcinoma, 138582-R-J1 Merkel cell tumor, K60290-347-R-J1 and K57222-313-R-J1-PDC glioblastomas, 653999-131-R-J2-PDC, LG0703-F948-PDC, and 349418-098-R-PDC non-small cell lung carcinomas, 885512-296-R-J2-PDC, 171881-019-R-J1-PDC breast carcinomas and 186277-243-T-J2-PDC and 233499-124-R-J2-PDC colon carcinomas were obtained from the NCI Patient-Derived Models Repository (PDMR, https://pdmr.cancer.gov). The established cell lines NCI/ADR-RES (RRID:CVCL_14520 and OVCAR-5 (RRID:CVCL_1628) ovarian carcinomas, 786-O (RRID:CVCL_1051) and A498 (RRID:CVCL_A498) renal cell carcinoma, NCI-H211 (ATCC, cat. CRL-5824; RRID:CVCL_1529), NCI-H196 (ATCC, cat. CRL-5823, RRID:CVCL_1509), SW 1271 (ATCC, cat. CRL-2177, RRID:CVCL_1716) and NCI-H1876 (ATCC, cat. CRL-5902, RRID:CVCL_1503) small cell lung carcinomas, MDA-MB-231 (RRID:CVCL_0062) and MDA-MB-468 (RRID:CVCL_0419)breast carcinomas (10-12). Pooled donor human umbilical vein endothelial cells (HUVEC, Lonza, cat. CC-2519) and human mesenchymal stem cells (hMSC, Lonza, cat. PT-2501) were purchased from Lonza (Walkersville, MD).
Cell Culture. All cells were maintained in an incubator at 37 degrees C and 5% CO2 with 95% humidity. The PDC lines were cultured according to standard operating procedures established by the NCI PDMR (https://pdmr.cancer.gov). Briefly all PDCs were thawed and cultured in Matrigel-coated flasks prepared with a working solution of 1X Ham's F-12 nutrient mix, without supplementation (Invitrogen, Waltham, MA, cat. 11765054), 100 U/mL penicillin-streptomycin (Invitrogen, cat. 15140122), and 2.5% Matrigel (Corning Inc., Corning, NY, cat. 354248) for the first three passages. […]

As to `NS(=O)(=O)OCC1CC(n2ccc3c(NC4CCc5ccccc54)ncnc32)CC1O` (configuration not stated) + NC1CCC(NC2CC2c2ccccc2)CC1, the IC50 – broadly, the concentration needed to halve the response being measured – (curve of first compound, second compound 0.1 µM) worked out at 986 nM; the IC50 (curve of first compound, second compound 0.316 µM) was 890 nM; the IC50 (curve of first compound, second compound 1 µM) was found to be 740 nM; the IC50 (curve of first compound, second compound 3.16 µM) is 660 nM; the IC50 (curve of first compound, second compound 10 µM) amounted to 353 nM. Besides, the viability, T/C (as a rule, the result in the treated group divided by that in the control group, in per cent) (second compound 0.1 µM, first compound 0.00949 µM) is 99.1%; the viability, T/C (second compound 0.1 µM, first compound 0.03 µM) was 98.9%; the viability, T/C (second compound 0.1 µM, first compound 0.0949 µM) is 84.9%; the viability, T/C (second compound 0.1 µM, first compound 0.3 µM) is 73.8%; the viability, T/C (second compound 0.1 µM, first compound 0.949 µM) was 52.3%; the viability, T/C (second compound 0.1 µM, first compound 3 µM) was 14.4%. The viability, T/C (second compound 0.316 µM, first compound 0.00949 µM) was 99.2%; the viability, T/C (second compound 0.316 µM, first compound 0.03 µM) was 92.4%; the viability, T/C (second compound 0.316 µM, first compound 0.0949 µM) was 87.5%; the viability, T/C (second compound 0.316 µM, first compound 0.3 µM) was 74.7%; the viability, T/C (second compound 0.316 µM, first compound 0.949 µM) is 47.9%; the viability, T/C (second compound 0.316 µM, first compound 3 µM) was 15.7%. Also, the viability, T/C was 109% (second compound 1 µM, first compound 0.00949 µM); 95.6% (second compound 1 µM, first compound 0.03 µM); 86.5% (second compound 1 µM, first compound 0.0949 µM); 70.3% (second compound 1 µM, first compound 0.3 µM); 43.3% (second compound 1 µM, first compound 0.949 µM); 16.8% (second compound 1 µM, first compound 3 µM). Besides, the viability, T/C (second compound 3.16 µM, first compound 0.00949 µM) was 93.6%; the viability, T/C (second compound 3.16 µM, first compound 0.03 µM) is 93%; the viability, T/C (second compound 3.16 µM, first compound 0.0949 µM) is 86.2%; the viability, T/C (second compound 3.16 µM, first compound 0.3 µM) is 70.8%; the viability, T/C (second compound 3.16 µM, first compound 0.949 µM) is 40.4%; the viability, T/C (second compound 3.16 µM, first compound 3 µM) was 20.4%. In addition, the viability, T/C is 87.3% (second compound 10 µM, first compound 0.00949 µM); 86.8% (second compound 10 µM, first compound 0.03 µM); 73.8% (second compound 10 µM, first compound 0.0949 µM); 50.5% (second compound 10 µM, first compound 0.3 µM); 31.3% (second compound 10 µM, first compound 0.949 µM); 7.61% (second compound 10 µM, first compound 3 µM).

`Nc1ncn(C2CC(O)C(CO)O2)c(=O)n1` (configuration not stated): the viability, T/C (compound 0.00316 µM) is 95.5% and 91.8%; the viability, T/C (compound 0.01 µM) is 89.1% and 76.3%; the viability, T/C (compound 0.0316 µM) was 71% and 57.2%; the viability, T/C (compound 0.1 µM) is 40.1% and 33.6%; the viability, T/C (compound 0.316 µM) is 27.4% and 18.6%; the viability, T/C (compound 1 µM) was 19.8% and 12.7%. The IC50 (curve of compound) was 70.8 nM and 43.4 nM.
